In US11684571B2, “Methods of treating eosinophilic esophagitis” (Ellodi Pharmaceuticals, L.P., priority 2016, dated 2023):

Legend:
[1] = in vivo
Method: Incidence of treatment-emergent Adverse Events (AEs), AEs leading to withdrawal, and Serious Adverse Events (SAEs) grouped by system organ class (SOC) were calculated as needed. Clinically significant abnormal values for clinical laboratory, AM cortisol (≤138 nmol/L), urinalysis, vital signs, and electrocardiogram (ECG) findings were measured as needed.
A total of 24 subjects were enrolled and randomized to one of six sequences to receive each of the three treatments over the three periods with a 7-day washout between doses.
C. […] These subjects continued fasting for at least 4 hours post-dose. • Subjects on the “Fed” treatment (Treatment B) began a high-fat breakfast 30 minutes after an overnight fast of at least 10 hours. […] Subjects were administered 6.0 mg of ATP-1011 immediately prior to bedtime (4 hours following the standard meal).
Randomization (Day 1): Subjects were randomized to one of six sequences (See Table 15) to receive a single dose of each treatment over three periods, with a 7-day washout between doses.
Treatment Periods: For each period, subjects were in-patients for 5 days (Days 0-4, Days 7-11, Days 14-18) with PK samples collected over 72 hours following each dose. Subjects were checked-in to the CRU the evening prior to each dosing (Day 0, 7, and 14) and received treatment according to the sequence on which they were randomized on Day 1. […] All meals (AM and 4 hours prior to bedtime) were standardized for all subjects and all periods. Subjects completed these meals within 30 minutes. […] Subjects dosed HS followed the same PK schedule with PK samples scheduled relative to the bedtime dose.
Pharmacokinetics: Derived plasma-PK-parameter descriptive statistics were summarized by treatment. […] Additional comparisons were assessed between HS dosing and Fed and Fasted administration.
The following PK parameters were estimated by noncompartmental methods from plasma samples. Below limit of quantitation concentrations were treated as zero for all PK analyses. All deviations from the scheduled sampling time of 2 minutes or more were taken into consideration for evaluation of the PK parameters.
The trapezoidal rule was used to estimate the area under the curve (linear trapezoidal linear interpolation) and the terminal phase were estimated by maximizing the coefficient of determination estimated from the log-linear regression model. However, disposition parameters were not estimated for individual concentration-time profiles where the terminal log-linear phase cannot be reliably characterized.
Food Effect Analysis: The 90% confidence interval for the exponential of the difference in LSmeans between B (fed) and A (fasted) was calculated for the ln-transformed parameters (Test to Reference ratio of geometric LSmeans).
HS vs Fasted Analysis: The 90% confidence interval for the exponential of the difference in LSmeans between C (HS) and A (fasted) was calculated for the ln-transformed parameters (Test to Reference ratio of geometric LSmeans).
HS vs Fed Analysis: The 90% confidence interval for the exponential of the difference in LSmeans between C (HS) and B (fed) was calculated for the ln-transformed parameters (Test to Reference ratio of geometric LSmeans).
Treatments Administered: Study drug was administered by qualified study staff only in accordance with the procedures described in this protocol. […] All subjects were instructed to take the study drug tablet orally without water or other liquids. […]

[2] = Previous PK studies of APT-1011 (food effect, QD vs BID); type: in vivo, human; conditions: single-dose administration
[3] = oral; cited from earlier work

## CCC(=O)O[C@]1(C(=O)SCF)[C@H](C)C[C@H]2[C@@H]3C[C@H](F)C4=CC(=O)C=C[C@]4(C)[C@@]3(F)[C@@H](O)C[C@@]21C [FP, Fluticasone propionate]
[1]; human, 6 mg
  AUC0-24, geometric LSmean: 0.367351 ng·h/mL
  AUCinf, geometric LSmean: 0.915302 ng·h/mL
  AUClast, geometric LSmean: 0.789234 ng·h/mL
  Cmax, geometric LSmean: 0.0313 ng/mL
[1]
  maximum peak exposure, lower than morning-fast: 19%
[2]
  between-subject variability (CV % Geo mean) of FP AUC(0-24h): > 55%
[3]
  expected systemic bioavailability: ~1%
